In US20250059131A1, “FLUORINATED CATIONIC LIPIDS FOR USE IN LIPID NANOPARTICLES” (Acuitas Therapeutics, Inc., priority 2021, published 2025):
Marks after values point to notes of the source that are not given here.

How the values were obtained:
[1] = Determination of pKa of formulated lipids (TNS fluorescence assay in lipid nanoparticles); type: physicochemical; details: cationic lipid formulated in LNP (cationic lipid/DSPC/cholesterol/PEG-lipid 47.5/10/40.7/1.8 mol %), pH of half-maximal fluorescence
Description: As described elsewhere, the pKa of formulated cationic lipids is correlated with the effectiveness of LNPs for delivery of nucleic acids (see Jayaraman et al, Angewandte Chemie, International Edition (2012), 51(34), 8529-8533; Semple et al, Nature Biotechnology 28, 172-176 (2010)). The preferred range of pKa is ˜5 to ˜7. The pKa of each cationic lipid was determined in lipid nanoparticles using an assay based on fluorescence of 2-(p-toluidino)-6-napthalene sulfonic acid (TNS). Lipid nanoparticles comprising cationic lipid/DSPC/cholesterol/PEG-lipid (47.5/10/40.7/1.8 mol %) in PBS at a concentration of 0.4 mM total lipid were prepared using the in-line process as described in Example 1. TNS was prepared as a […] stock solution in distilled water. Vesicles were diluted to 24 μM lipid in 2 mL of buffered solutions containing, 10 mM HEPES, 10 mM MES, 10 mM ammonium acetate, 130 mM NaCl, where the pH ranged from 2.5 to 11. An aliquot of the TNS solution was added to give a final concentration of 1 μM and following vortex mixing fluorescence intensity was measured at room temperature in a SLM Aminco Series 2 Luminescence Spectrophotometer using excitation and emission wavelengths of 321 nm and 445 nm. A sigmoidal best fit analysis was applied to the fluorescence data and the pKa was measured as the pH giving rise to half-maximal fluorescence intensity.

[2] = test system: luciferase expression in the liver; assay: Luciferase mRNA in vivo evaluation using lipid nanoparticle compositions; set-up: species or system mice; details: tail vein injection, 4 hours after administration, LNP formulation; for Liver Luc @ 0.5 mg/kg (ng luc/g): 0.5 mg mRNA/kg
Description: Lipid nanoparticles were prepared and tested according to the general procedures described in PCT Pub. Nos. WO 2015/199952 and WO 2017/004143, the full disclosures of which are incorporated herein by reference. Briefly, cationic lipid, DSPC, cholesterol and PEG-lipid were solubilized in ethanol at a molar ratio of about 50:10:38.5:1.5 or about 47.5:10:40.7:1.8. Lipid nanoparticles (LNP) were prepared at a total lipid to mRNA weight ratio of approximately 10:1 to 40:1. The mRNA is diluted to 0.2 mg/mL in 10 to 50 mM citrate or acetate buffer, pH 4. Syringe pumps were used to mix the ethanolic lipid solution with the mRNA aqueous solution at a ratio of about 1:5 to 1:3 (vol/vol) with total flow rates above 15 mL/min. The ethanol was then removed and the external buffer replaced with PBS by dialysis. Finally, the lipid nanoparticles were filtered through a 0.2 µm pore sterile filter. Lipid nanoparticle particle size was approximately 55-95 nm diameter, and in some instances approximately 70-90 nm diameter as determined by quasi-elastic light scattering using a Malvern Zetasizer Nano ZS (Malvern, UK).
Studies were performed in 6-8 week old female C57BL/6 mice (Charles River) or 8-10 week old CD-1 (Harlan) mice (Charles River) according to guidelines established by an institutional animal care committee (ACC) and the Canadian Council on Animal Care (CCAC). Varying doses of mRNA-lipid nanoparticle were systemically administered by tail vein injection and animals euthanized at a specific time point (e.g., 4 hours) post-administration. Liver and spleen were collected in pre-weighed tubes, weights determined, immediately snap frozen in liquid nitrogen and stored at −80° C. until processing for analysis.
For liver, approximately 50 mg was dissected for analyses in a 2 mL FastPrep tubes (MP Biomedicals, Solon OH). […] ceramic sphere (MP Biomedicals) is added to each tube and 500 μL of Glo Lysis Buffer—GLB (Promega, Madison WI) equilibrated to room temperature is added to liver tissue. Liver tissues were homogenized with the FastPrep24 instrument (MP Biomedicals) at 2×6.0 m/s for 15 seconds. Homogenate was incubated at room temperature for 5 minutes prior to a 1:4 dilution in GLB and assessed using SteadyGlo Luciferase assay system (Promega). Specifically, 50 μL of diluted tissue homogenate was reacted with 50 μL of SteadyGlo substrate, shaken for 10 seconds followed by 5 minute incubation and then quantitated using a CentroXS^3 LB 960 luminometer (Berthold Technologies, Germany). The amount of protein assayed was determined by using the BCA protein assay kit (Pierce, Rockford IL). Relative luminescence units (RLU) were then normalized to total μg protein assayed. To convert RLU to ng luciferase a standard curve was generated with QuantiLum Recombinant Luciferase (Promega).
The FLuc mRNA (L-6107 or L-7202) from Trilink Biotechnologies will express a luciferase protein, originally isolated from the firefly, photinus pyralis. FLuc is commonly used in mammalian cell culture to measure both gene expression and cell viability. It emits bioluminescence in the presence of the substrate, luciferin. This capped and poly-adenylated mRNA was fully substituted with respect to uridine and/or cytidine nucleosides.
(§1) Representative compounds of the disclosure shown in Table 2 were formulated using the following molar ratio: 50% cationic lipid/10% distearoylphosphatidylcholine (DSPC)/38.5% Cholesterol/1.5% PEG lipid 2-[2-(ω-methoxy(polyethyleneglycol2000)ethoxy]-N,N-ditetradecylacetamide) or 47.5% cationic lipid/10% DSPC/40.7% Cholesterol/1.8% PEG lipid. Relative activity was determined by measuring luciferase expression in the liver 4 hours following administration via tail vein injection as described in Example 1 or by measuring the amount of human IgG in mouse serum as described in example 2. […]

human IgG in mouse serum = assay: Immunoglobulin G (IgG) mRNA in vivo evaluation using lipid nanoparticle compositions; set-up: species or system mice; details: tail vein injection, 24 hours after administration, LNP formulation; for Serum IgG @ 0.3 mg/kg: 0.3 mg mRNA/kg; for Serum IgG @ 1.0 mg/kg: 1.0 mg mRNA/kg
Description: A lipid of structure (I), DSPC, cholesterol and PEG-lipid are solubilized in ethanol at a molar ratio of 50:10:38.5:1.5 or 47.5:10:40.7:1.8. Lipid nanoparticles (LNP) are prepared at a total lipid to mRNA weight ratio of approximately 10:1 to 40:1. Briefly, the mRNA is diluted to 0.2 mg/mL in 10 to 50 mM citrate buffer, pH 4 or 10 to 25 mM acetate buffer, pH 4. Syringe pumps are used to mix the ethanolic lipid solution with the mRNA aqueous solution at a ratio of about 1:5 to 1:3 (vol/vol) with total flow rates above 15 mL/min. The ethanol is then removed and the external buffer replaced with PBS by dialysis. Finally, the lipid nanoparticles are filtered through a 0.2 µm pore sterile filter.
Studies are performed in 6-8 week old CD-1/ICR mice (Envigo) according to guidelines established by an institutional animal care committee (ACC) and the Canadian Council on Animal Care (CCAC). Varying doses of mRNA-lipid nanoparticle are systemically administered by tail vein injection and animals euthanized at a specific time point (e.g., 24 hours) post-administration. The whole blood is collected, and the serum subsequentially separated by centrifuging the tubes of the whole blood at 2000× g for 10 minutes at 4° C. and stored at −80° C. until use for analysis.
For immunoglobulin G (IgG) ELISA (Life Diagnostics Human IgG ELISA kit), the serum samples are diluted at 100 to 15000 folds with 1× diluent solution. 100 μL of diluted serum is dispensed into anti-human IgG coated 96-well plate in duplicate alongside human IgG standards and incubated in a plate shaker at 150 rpm at 25° C. for 45 minutes. The wells are washed 5 times with 1× wash solution using a plate washer (400 μL/well). […] The absorbance is read at 450 nm (A450) with a microplate reader. The amount of human IgG in mouse serum is determined by plotting A450 values for the assay standard against human IgG concentration.
as §1, with “2. The activity was compared at a dose of 1.0 or 0.5 or 0.3 mg mRNA/kg and expressed as ng luciferase/g liver measured 4 hours after administration, as described in Example 1 or as μg IgG/mL serum measured 24 hours after administration, as described in Example 2.” for “2.”

SMILES	pKa [1]	Liver Luc @ 0.5 mg/kg (ng luc/g) [2] [ng luc/g]	Liver Luc, determined at 0.3 mg/kg (ng luc/g) ([2]; 0.3 mg mRNA/kg)	Liver Luc, determined at 1.0 mg/kg (ng luc/g) ([2]; 1.0 mg mRNA/kg)	Serum IgG @ 0.3 mg/kg (human IgG in mouse serum) [µg/mL]	Serum IgG @ 1.0 mg/kg (human IgG in mouse serum) [µg/mL]
CCCCCCCCCC(OC(=O)CCCCCCCN(CCO)CCCCCCCC(=O)OC(CCCCCCCCC)C(F)(F)C(F)(F)F)C(F)(F)C(F)(F)F (stereo not drawn) [Compound I-1, BIS(1,1,1,2,2-PENTAFLUORODODECAN-3-YL) 8,8′-((2-HYDROXYETHYL)AZANEDIYL)DIOCTANOATE]	5.88	1233 ± 305				
CCCCCCCCCC(OC(=O)CCCCCN(CCCO)CCCCCC(=O)OC(CCCCCCCCC)C(F)(F)C(F)(F)F)C(F)(F)C(F)(F)F (stereo not drawn) [Compound I-2, BIS(1,1,1,2,2-PENTAFLUORODODECAN-3-YL) 6,6′-((3-HYDROXYPROPYL)AZANEDIYL)DIHEXANOATE]	5.92	511 ± 79				
CCCCCCCCCC(OC(=O)CCCCCN(CCCCO)CCCCCC(=O)OC(CCCCCCCCC)C(F)(F)C(F)(F)F)C(F)(F)C(F)(F)F (stereo not drawn) [Compound I-3, BIS(1,1,1,2,2-PENTAFLUORODODECAN-3-YL) 6,6′-((4-HYDROXYBUTYL)AZANEDIYL)DIHEXANOATE]	6.03	3633 ± 1416				
CCCCCCCCCC(OC(=O)CCCCCN(CCCCCO)CCCCCC(=O)OC(CCCCCCCCC)C(F)(F)C(F)(F)F)C(F)(F)C(F)(F)F (stereo not drawn) [Compound I-4, BIS(1,1,1,2,2-PENTAFLUORODODECAN-3-YL) 6,6′-((5-HYDROXYPENTYL)AZANEDIYL)DIHEXANOATE]	5.88		1336 ± 329	14888 + 2009** ng luc/g		
CCCCCCCCCCN(CCCCCCCCCC)C(=O)C(F)CCCCCCN(CCCCCO)CCCCCCC(F)C(=O)N(CCCCCCCCCC)CCCCCCCCCC (stereo not drawn) [Compound I-9, 8,8′-((5-HYDROXYPENTYL)AZANEDIYL)BIS(N,N-DIDECYL-2-FLUOROOCTANAMIDE)]					24.36 ± 4.39	239.26 ± 39.80
CCCCCCCCCCN(CCCCCCCCCC)C(=O)C(F)CCCCCCN(C)CCCCCCC(F)C(=O)N(CCCCCCCCCC)CCCCCCCCCC (stereo not drawn) [Compound I-10, 8,8′-(METHYLAZANEDIYL)BIS(N,N-DIDECYL-2-FLUOROOCTANAMIDE)]					12.94 ± 2.03	142.26 ± 26.31
CCCCCCCCCC(CC)OC(=O)CCCCCN(CCCCO)CCCCCC(=O)OC(CC)CCCCCCCCC (stereo not drawn) [I-3 analogue, reference compound]	6.62	462 ± 425				
